Read-outs that look alike come from different tables or passages of the source.
Tests used:
[1] = system: patients with advanced solid tumors; assay: Safety; format: in vivo, human; details: Part A
advanced solid tumors = assay: Best overall response per RECIST version 1.1, Part B; format: in vivo, human
[2] = system: patients with advanced solid tumors; details: Part A

**Q.** With `COc1ccc([C@@H](O)c2cc(-c3ncnc4cc(N5CCOCC5)ccc34)c(F)cc2Cl)nn1` [Peposertib] as the compound, how does the “TEAEs leading to death” value ([1]; 300 mg b.i.d., grade ≥3) read?
**A.** 2 (33.3) n (%)

**Q.** What about the “Treatment-related AE leading to death” value ([1]; 300 mg b.i.d., grade ≥3) of the same compound?
**A.** 0 n (%)

**Q.** And the IRR ([1]; 400 mg b.i.d., all grade)?
**A.** 0 n (%)

**Q.** What about the “Immune-related AE” value ([1]; 400 mg b.i.d., all grade) of the same compound?
**A.** 1 (25.0) n (%)

**Q.** And the “Serious TEAE” value ([1]; 400 mg b.i.d., all grade)?
**A.** 4 (100.0) n (%)

**Q.** And the “Serious TEAE, peposertib related” value ([1]; 400 mg b.i.d., all grade)?
**A.** 3 (75.0) n (%)

**Q.** And the “Serious TEAE, treatment related” value ([1]; 400 mg b.i.d., all grade)?
**A.** 3 (75.0) n (%)

**Q.** What about the TEAE ([1]; 400 mg b.i.d., all grade) of the same compound?
**A.** 4 (100.0) n (%)

**Q.** And the “TEAE, peposertib related” value ([1]; 400 mg b.i.d., all grade)?
**A.** 4 (100.0) n (%)

**Q.** What about the “TEAE, treatment related” value ([1]; 400 mg b.i.d., all grade) of the same compound?
**A.** 4 (100.0) n (%)

**Q.** And the “TEAEs leading to death” value ([1]; 400 mg b.i.d., all grade)?
**A.** 0 n (%)

**Q.** What about the “Treatment-related AE leading to death” value ([1]; 400 mg b.i.d., all grade) of the same compound?
**A.** 0 n (%)

**Q.** What about the IRR ([1]; 400 mg b.i.d., grade ≥3) of the same compound?
**A.** 0 n (%)

**Q.** And the “Immune-related AE” value ([1]; 400 mg b.i.d., grade ≥3)?
**A.** 1 (25.0) n (%)

**Q.** And the “Serious TEAE” value ([1]; 400 mg b.i.d., grade ≥3)?
**A.** 4 (100.0) n (%)

**Q.** What about the “Serious TEAE, peposertib related” value ([1]; 400 mg b.i.d., grade ≥3) of the same compound?
**A.** 3 (75.0) n (%)

**Q.** What about the “Serious TEAE, treatment related” value ([1]; 400 mg b.i.d., grade ≥3) of the same compound?
**A.** 3 (75.0) n (%)

**Q.** What about the TEAE ([1]; 400 mg b.i.d., grade ≥3) of the same compound?
**A.** 4 (100.0) n (%)

**Q.** What about the “TEAE, peposertib related” value ([1]; 400 mg b.i.d., grade ≥3) of the same compound?
**A.** 4 (100.0) n (%)

**Q.** What about the “TEAE, treatment related” value ([1]; 400 mg b.i.d., grade ≥3) of the same compound?
**A.** 4 (100.0) n (%)

**Q.** And the “TEAEs leading to death” value ([1]; 400 mg b.i.d., grade ≥3)?
**A.** 0 n (%)

**Q.** And the “Treatment-related AE leading to death” value ([1]; 400 mg b.i.d., grade ≥3)?
**A.** 0 n (%)

**Q.** And the “Discontinuation of all study treatments due to AEs” value ([1]; all dose levels)?
**A.** 11 (37.9%)

**Q.** What about the “Peposertib-related TEAE: fatigue” value ([1]; all dose levels) of the same compound?
**A.** 8 (27.6%)

**Q.** And the “Peposertib-related TEAE: nausea” value ([1]; all dose levels)?
**A.** 9 (31.0%)

**Q.** What about the “Peposertib-related TEAE: vomiting” value ([1]; all dose levels) of the same compound?
**A.** 9 (31.0%)

**Q.** And the “Patients with complete response (CR) or partial response (PR)” value (advanced solid tumors)?
**A.** no patients

**Q.** What about the “Best overall response of stable disease (SD) or non-CR/non-PD” value (advanced solid tumors; all dose levels) of the same compound?
**A.** 31.6%

**Q.** And the “DLT by preferred term: Acute kidney injury” value (“DLT … Acute kidney injury” below) ([2]; 100 mg b.i.d.)?
**A.** 0 n (%)

**Q.** What about the “DLT by preferred term: Febrile neutropenia” value (shortened to “DLT … Febrile neutropenia”) ([2]; 100 mg b.i.d.) of the same compound?
**A.** 0 n (%)

**Q.** What about the “DLT by preferred term: Neutropenia” value ([2]; 100 mg b.i.d.) of the same compound?
**A.** 0 n (%)

**Q.** And the “DLT by preferred term: Neutrophil count decreased” value (“DLT … Neutrophil count decreased” for short) ([2]; 100 mg b.i.d.)?
**A.** 0 n (%)

**Q.** And the “DLT by preferred term: Pneumonitis” value ([2]; 100 mg b.i.d.)?
**A.** 0 n (%)

**Q.** And the “DLT by preferred term: Pyrexia” value ([2]; 100 mg b.i.d.)?
**A.** 0 n (%)

**Q.** What about the “DLT by preferred term: Rash” value ([2]; 100 mg b.i.d.) of the same compound?
**A.** 0 n (%)

**Q.** What about the “DLTs per patient: 1” value ([2]; 100 mg b.i.d.) of the same compound?
**A.** 0 n (%)

**Q.** What about the “DLTs per patient: 2” value ([2]; 100 mg b.i.d.) of the same compound?
**A.** 0 n (%)

**Q.** What about the “DLTs per patient: ≥3” value ([2]; 100 mg b.i.d.) of the same compound?
**A.** 0 n (%)

**Q.** What about the “Patients with DLT” value ([2]; 100 mg b.i.d.) of the same compound?
**A.** 0 n (%)

**Q.** And the “DLT … Acute kidney injury” value ([2]; 200 mg b.i.d.)?
**A.** 0 n (%)

**Q.** And the “DLT … Febrile neutropenia” value ([2]; 200 mg b.i.d.)?
**A.** 0 n (%)

**Q.** What about the “DLT by preferred term: Neutropenia” value ([2]; 200 mg b.i.d.) of the same compound?
**A.** 0 n (%)

**Q.** And the “DLT … Neutrophil count decreased” value ([2]; 200 mg b.i.d.)?
**A.** 0 n (%)

**Q.** And the “DLT by preferred term: Pneumonitis” value ([2]; 200 mg b.i.d.)?
**A.** 0 n (%)

**Q.** What about the “DLT by preferred term: Pyrexia” value ([2]; 200 mg b.i.d.) of the same compound?
**A.** 0 n (%)

**Q.** What about the “DLT by preferred term: Rash” value ([2]; 200 mg b.i.d.) of the same compound?
**A.** 0 n (%)

**Q.** What about the “DLTs per patient: 1” value ([2]; 200 mg b.i.d.) of the same compound?
**A.** 0 n (%)

**Q.** And the “DLTs per patient: 2” value ([2]; 200 mg b.i.d.)?
**A.** 0 n (%)

**Q.** And the “DLTs per patient: ≥3” value ([2]; 200 mg b.i.d.)?
**A.** 0 n (%)

**Q.** And the “Patients with DLT” value ([2]; 200 mg b.i.d.)?
**A.** 0 n (%)

**Q.** And the “DLT … Acute kidney injury” value ([2]; 250 mg b.i.d.)?
**A.** 0 n (%)

**Q.** And the “DLT … Febrile neutropenia” value ([2]; 250 mg b.i.d.)?
**A.** 0 n (%)

**Q.** What about the “DLT by preferred term: Neutropenia” value ([2]; 250 mg b.i.d.) of the same compound?
**A.** 0 n (%)

**Q.** And the “DLT … Neutrophil count decreased” value ([2]; 250 mg b.i.d.)?
**A.** 0 n (%)

**Q.** And the “DLT by preferred term: Pneumonitis” value ([2]; 250 mg b.i.d.)?
**A.** 1 (50.0) n (%)

**Q.** And the “DLT by preferred term: Pyrexia” value ([2]; 250 mg b.i.d.)?
**A.** 0 n (%)

**Q.** And the “DLT by preferred term: Rash” value ([2]; 250 mg b.i.d.)?
**A.** 0 n (%)

**Q.** What about the “DLTs per patient: 1” value ([2]; 250 mg b.i.d.) of the same compound?
**A.** 1 (50.0) n (%)

**Q.** What about the “DLTs per patient: 2” value ([2]; 250 mg b.i.d.) of the same compound?
**A.** 0 n (%)

**Q.** And the “DLTs per patient: ≥3” value ([2]; 250 mg b.i.d.)?
**A.** 0 n (%)

**Q.** And the “Patients with DLT” value ([2]; 250 mg b.i.d.)?
**A.** 1 (50.0) n (%)

**Q.** What about the “DLT … Acute kidney injury” value ([2]; 300 mg b.i.d.) of the same compound?
**A.** 0 n (%)

**Q.** What about the “DLT … Febrile neutropenia” value ([2]; 300 mg b.i.d.) of the same compound?
**A.** 0 n (%)

**Q.** And the “DLT by preferred term: Neutropenia” value ([2]; 300 mg b.i.d.)?
**A.** 0 n (%)

**Q.** And the “DLT … Neutrophil count decreased” value ([2]; 300 mg b.i.d.)?
**A.** 0 n (%)

**Q.** What about the “DLT by preferred term: Pneumonitis” value ([2]; 300 mg b.i.d.) of the same compound?
**A.** 1 (25.0) n (%)

**Q.** And the “DLT by preferred term: Pyrexia” value ([2]; 300 mg b.i.d.)?
**A.** 0 n (%)

**Q.** What about the “DLT by preferred term: Rash” value ([2]; 300 mg b.i.d.) of the same compound?
**A.** 0 n (%)

**Q.** What about the “DLTs per patient: 1” value ([2]; 300 mg b.i.d.) of the same compound?
**A.** 1 (25.0) n (%)

**Q.** What about the “DLTs per patient: 2” value ([2]; 300 mg b.i.d.) of the same compound?
**A.** 0 n (%)

**Q.** What about the “DLTs per patient: ≥3” value ([2]; 300 mg b.i.d.) of the same compound?
**A.** 0 n (%)

**Q.** What about the “Patients with DLT” value ([2]; 300 mg b.i.d.) of the same compound?
**A.** 1 (25.0) n (%)

**Q.** What about the “DLT … Acute kidney injury” value ([2]; 400 mg b.i.d.) of the same compound?
**A.** 1 (25.0) n (%)

**Q.** And the “DLT … Febrile neutropenia” value ([2]; 400 mg b.i.d.)?
**A.** 1 (25.0) n (%)

**Q.** And the “DLT by preferred term: Neutropenia” value ([2]; 400 mg b.i.d.)?
**A.** 1 (25.0) n (%)

**Q.** What about the “DLT … Neutrophil count decreased” value ([2]; 400 mg b.i.d.) of the same compound?
**A.** 1 (25.0) n (%)

**Q.** And the “DLT by preferred term: Pneumonitis” value ([2]; 400 mg b.i.d.)?
**A.** 0 n (%)

**Q.** And the “DLT by preferred term: Pyrexia” value ([2]; 400 mg b.i.d.)?
**A.** 1 (25.0) n (%)

**Q.** What about the “DLT by preferred term: Rash” value ([2]; 400 mg b.i.d.) of the same compound?
**A.** 1 (25.0) n (%)

**Q.** And the “DLTs per patient: 1” value ([2]; 400 mg b.i.d.)?
**A.** 1 (25.0) n (%)

**Q.** And the “DLTs per patient: 2” value ([2]; 400 mg b.i.d.)?
**A.** 1 (25.0) n (%)

**Q.** What about the “DLTs per patient: ≥3” value ([2]; 400 mg b.i.d.) of the same compound?
**A.** 1 (25.0) n (%)

**Q.** And the “Patients with DLT” value ([2]; 400 mg b.i.d.)?
**A.** 3 (75.0) n (%)

— PMC10937199 (ESMO Open, 2024)
